Measurements published in patent publication US8557839B2, “Fused ring azadecalin glucocorticoid receptor modulators” (Corcept Therapeutics, Inc., priority 2004, dated 2013).

What was measured:
glucocorticoid receptors [1] = biological target: T1, glucocorticoid receptors (Homo sapiens, UniProt P04150); assay: Glucocorticoid receptor binding displacement assay with 3H-dexamethasone; design: This GR was a full-length steroid hormone receptor; host or cells: recombinant baculovirus-infected insect cells
T1 sequence (P04150 1-777): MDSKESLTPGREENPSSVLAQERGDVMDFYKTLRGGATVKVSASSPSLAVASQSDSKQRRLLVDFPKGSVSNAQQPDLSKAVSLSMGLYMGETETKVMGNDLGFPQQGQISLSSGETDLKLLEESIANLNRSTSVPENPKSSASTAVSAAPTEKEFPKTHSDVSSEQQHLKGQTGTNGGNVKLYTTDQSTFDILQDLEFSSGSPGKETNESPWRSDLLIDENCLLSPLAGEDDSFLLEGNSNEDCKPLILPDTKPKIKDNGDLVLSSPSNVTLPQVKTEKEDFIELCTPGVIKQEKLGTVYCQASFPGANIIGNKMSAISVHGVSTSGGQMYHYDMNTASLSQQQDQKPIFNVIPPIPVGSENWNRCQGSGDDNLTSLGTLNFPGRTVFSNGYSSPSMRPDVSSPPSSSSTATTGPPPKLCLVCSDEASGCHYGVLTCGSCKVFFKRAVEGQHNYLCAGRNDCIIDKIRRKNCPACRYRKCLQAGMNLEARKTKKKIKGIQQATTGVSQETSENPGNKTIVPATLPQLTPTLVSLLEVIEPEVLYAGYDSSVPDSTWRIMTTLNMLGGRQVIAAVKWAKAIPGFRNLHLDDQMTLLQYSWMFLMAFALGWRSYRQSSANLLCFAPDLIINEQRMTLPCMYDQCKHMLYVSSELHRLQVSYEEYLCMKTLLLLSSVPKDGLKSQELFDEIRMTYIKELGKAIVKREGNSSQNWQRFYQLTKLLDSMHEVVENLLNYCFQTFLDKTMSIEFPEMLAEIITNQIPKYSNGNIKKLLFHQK
Protocol: The source of the receptor was recombinant baculovirus-infected insect cells. This GR was a full-length steroid hormone receptor likely to be associated with heat-shock and other endogenous proteins.
For the Primary Screen, test compounds were tested at 1 μM in duplicate. These compounds were diluted from 10 mM stock in 100% DMSO. After dilution to 100 μM, 5 μl were added to 245 μl assay buffer to obtained 2 μM compound and 2% DMSO.
For the IC50 determinations, test compounds were tested at 6 concentrations in duplicate (concentration range depends on % inhibition binding that was obtained in the Primary Screen). Test compounds were diluted from 10 mM stock in 100% DMSO. The tested solutions were prepared at 2× final assay concentration in 2% DMSO/assay buffer.
All reagents and the assay plate were kept on ice during the addition of reagents. […] After the additions, the incubation mixture was mixed and incubated for 2.5 hrs at 4° C.
After 2.5 hrs incubation, unbound counts were removed with dextran coated charcoal (DCC) as follows: 25 μl of DCC solution (10% DCC in assay buffer) was added to all wells and mixed (total volume 225 μl). The plate was centrifuged at 4000 rpm for 10 minutes at 4° C. 75 μl of the supernatants (i.e.⅓ of total volume) was carefully pipetted into an optiplate. 200 μl of scintillation cocktail were added (Microscint-40, Packard Bioscience. B.V.). The plate was vigorously shaken for approx. 10 minutes and counted on Topcount.
The IC50 values were converted to Ki (the inhibition constant) using the Cheng-Prusoff equation.
Reagents: Assay buffer: 10 mM potassium phosphate buffer pH 7.6 containing 5 mM DTT, 10 mM sodium molybdate, 100 μM EDTA and 0.1% BSA.

glucocorticoid receptors [2] = biological target: T1, glucocorticoid receptors; assay: GR functional assay using SW1353/MMTV-5 cells (dexamethasone-induced luciferase); format: cell-based; design: contains endogenous glucocorticoid receptors; endogenous in cells; host or cells: SW1353/MMTV-5 (human chondrosarcoma, stably carrying the pMAMneo-Luc reporter)
Protocol: SW1353/MMTV-5 is an adherent human chondrosarcoma cell line that contains endogenous glucocorticoid receptors. It was transfected with a plasmid (pMAMneo-Luc) encoding firefly luciferase located behind a glucocorticoid-responsive element (GRE) derived from a viral promoter (long terminal repeat of mouse mammary tumor virus). A stable cell line SW1353/MMTV-5 was selected with geneticin, which was required to maintain this plasmid.
SW1353/MMTV-5 cells were distributed in 96-well plates and incubated in medium (without geneticin) for 24 hrs (in the absence of CO2).

[3] = Ki from IC50 by Cheng-Prusoff, 2.5 nM 3H-dexamethasone, read-out: GR Binding
[4] = SW1353/MMTV-5 cells, antagonism of 50 nM dexamethasone, luciferase, read-out: GR Functional

| SMILES | Ki (glucocorticoid receptors [1]; [3]) [µM] | Ki (glucocorticoid receptors [2]; read-out: GR Functional) [µM] | Ki (glucocorticoid receptors [2]; [4]) [µM] | Ki (glucocorticoid receptors [1]) [µM] | Ki (glucocorticoid receptors [2]) [µM] |
| --- | --- | --- | --- | --- | --- |
| CC(C)(C)c1ccc(S(=O)(=O)N2CCC3=Cc4c(cnn4-c4ccc(F)cc4)C[C@]3(C(=O)N3CCCC3)C2)cc1 | < 0.01 | 0.01 to 0.1 |  |  |  |
| COC(=O)C[C@]12Cc3cnn(-c4ccc(F)cc4)c3C=C1CCN(S(=O)(=O)c1ccc(C(C)(C)C)cc1)C2 | < 0.01 | 0.01 to 0.1 |  |  |  |
| C=CCNC[C@]12Cc3cnn(-c4ccc(F)cc4)c3C=C1CCN(S(=O)(=O)c1ccc(C(C)(C)C)cc1)C2 | < 0.01 | 0.01 to 0.1 |  |  |  |
| COc1ccc(-n2ncc3c2C=C2CCN(S(=O)(=O)c4ccc(C(C)(C)C)cc4)C[C@@]2(Cc2ccccc2)C3)cc1 | < 0.01 | 0.01 to 0.1 |  |  |  |
| CN1CCOc2cc(S(=O)(=O)N3CCC4=Cc5[nH]ncc5CC4(Cc4ccccc4)C3)ccc21 (stereo not drawn) [drawing 247] | < 0.01 | > 0.1 |  |  |  |
| CC(C)(C)c1ccc(S(=O)(=O)N2CCC3=Cc4c(cnn4-c4ccc(C#N)cc4)CC3(Cc3ccccc3)C2)cc1 (stereo not drawn) [drawing 239] | < 0.01 | 0.01 to 0.1 |  |  |  |
| COCCOC[C@]12Cc3cnn(C)c3C=C1CCN(S(=O)(=O)c1ccc(C(C)(C)C)cc1)C2 | 0.01 to 0.1 | > 0.1 |  |  |  |
| COCCOC[C@]12Cc3cnn(-c4ccc(F)cc4)c3C=C1CCN(S(=O)(=O)N(C)C)C2 | > 0.1 | > 0.1 |  |  |  |
| CC(C)(C)c1ccc(S(=O)(=O)N2CC[C@H]3Cc4c(cnn4-c4ccc(F)cc4)C[C@]3(CO)C2)cc1 | > 0.1 | > 0.1 |  |  |  |
| COCC[C@]12Cc3cnn(-c4ccc(F)cc4)c3C=C1CCN(S(=O)(=O)c1ccc(C(C)(C)C)cc1)C2 | < 0.01 | < 0.01 |  |  |  |
| CC(C)(C)c1ccc(S(=O)(=O)N2CC[C@H]3Cc4c(cnn4-c4ccc(F)cc4)C[C@]3(CN3CCOCC3)C2)cc1 | < 0.01 | 0.01 to 0.1 |  |  |  |
| O=S(=O)(c1ccc(F)cc1)N1CCC2=Cc3c(cnn3-c3ccc(F)cc3)C[C@]2(CO)C1 | < 0.01 | > 0.1 |  |  |  |
| CC(C)(C)c1ccc(S(=O)(=O)N2CCC3=Cc4c(cnn4-c4ccc(F)cc4)CC3(Cc3ccccc3)C2)cc1 (stereo not drawn) [drawing 249] | < 0.01 |  | 0.01 to 0.1 |  |  |
| CCOC[C@]12Cc3cnn(-c4ccc(F)cc4)c3C=C1CCN(S(=O)(=O)c1ccc(C(C)(C)C)cc1)C2 | < 0.01 | < 0.01 |  |  |  |
| Cc1ccc(S(=O)(=O)N2CCC3=Cc4c(cnn4-c4ccc(F)cc4)C[C@]3(CN(C)C)C2)cc1 | < 0.01 | 0.01 to 0.1 |  |  |  |
| COC(=O)[C@]12Cc3cnn(-c4ccc(F)cc4)c3C=C1CCN(S(=O)(=O)c1ccc(C(C)(C)C)cc1)C2 | < 0.01 | 0.01 to 0.1 |  |  |  |
| O=S(=O)(N1CCOCC1)N1CCC2=Cc3c(cnn3-c3ccc(F)cc3)CC2(Cc2ccc(F)cc2)C1 (stereo not drawn) |  |  |  | 0.01 to 0.1 | > 0.1 |
| CC(C)(C)c1ccc(S(=O)(=O)N2CCC3=Cc4c(cnn4-c4ccc(F)cc4)C[C@]3(C(=O)N3CCCCC3)C2)cc1 | < 0.01 | > 0.1 |  |  |  |
| Cc1ccc(S(=O)(=O)N2CCC3=Cc4c(cnn4-c4ccc(F)cc4)CC3(Cc3ccc(F)cc3)C2)cc1 (stereo not drawn) | < 0.01 | 0.01 to 0.1 |  |  |  |
| COCCCOC[C@]12Cc3cnn(-c4ccc(F)cc4)c3C=C1CCN(S(=O)(=O)c1ccc(C(C)(C)C)cc1)C2 | < 0.01 | < 0.01 |  |  |  |
| CC(C)(C)c1ccc(S(=O)(=O)N2CCC3=Cc4[nH]ncc4CC3(Cc3ccccc3)C2)cc1 (stereo not drawn) [drawing 229] | < 0.01 |  | 0.01 to 0.1 |  |  |
| CC(C)(C)c1ccc(CN2CCC3=Cc4c(cnn4-c4ccc(F)cc4)CC3(Cc3ccc(F)cc3)C2)cn1 (stereo not drawn) | < 0.01 | > 0.1 |  |  |  |
| O=S(=O)(c1ccc(F)cc1)N1CCC2=Cc3c(cnn3-c3ccc(F)cc3)CC2(Cc2ccc(F)cc2)C1 (stereo not drawn) | < 0.01 | 0.01 to 0.1 |  |  |  |
| CC(C)(C)c1ccc(S(=O)(=O)N2CCC3=Cc4c(cnn4-c4ccc(F)cc4)C[C@]3(CN3CCC3)C2)cc1 |  |  |  | < 0.01 | 0.01 to 0.1 |

| SMILES | Ki (glucocorticoid receptors [1]; [3]) [µM] | Ki (glucocorticoid receptors [2]; read-out: GR Functional) [µM] | Ki (glucocorticoid receptors [2]; [4]) [µM] | Ki (glucocorticoid receptors [1]) [µM] | Ki (glucocorticoid receptors [2]) [µM] |
| --- | --- | --- | --- | --- | --- |
| COC(=O)[C@]12Cc3cnn(C(C)C)c3C=C1CCN(S(=O)(=O)c1ccc(C(C)(C)C)cc1)C2 | 0.01 to 0.1 | > 0.1 |  |  |  |
| COC[C@]12Cc3cnn(C(C)C)c3C=C1CCN(S(=O)(=O)c1ccc(C(C)(C)C)cc1)C2 | 0.01 to 0.1 | > 0.1 |  |  |  |
| Cc1ccc(S(=O)(=O)N2CCC3=Cc4c(cnn4-c4ccc(F)cc4)C[C@]3(CO)C2)cc1 | < 0.01 | 0.01 to 0.1 |  |  |  |
| COCCOC[C@]12Cc3cnn(-c4ccc(F)cc4)c3C=C1CCN(S(=O)(=O)c1ccc(C(C)(C)C)cc1)C2 | < 0.01 | < 0.01 |  |  |  |
| CCCCS(=O)(=O)N1CCC2=Cc3c(cnn3-c3ccc(F)cc3)C[C@]2(CN2CCOCC2)C1 | 0.01 to 0.1 | > 0.1 |  |  |  |
| N#Cc1ccc(S(=O)(=O)N2CCC3=Cc4c(cnn4-c4ccc(F)cc4)C[C@]3(CN3CCOCC3)C2)cc1 | < 0.01 | > 0.1 |  |  |  |
| CC(C)(C)c1ccc(S(=O)(=O)N2CCC3=Cc4c(cnn4-c4ccc(F)cc4)C[C@]3(COCCC#N)C2)cc1 | < 0.01 | < 0.01 |  |  |  |
| CC(C)(C)c1ccc(S(=O)(=O)N2CCC3=Cc4c(cnn4-c4ccccn4)C[C@]3(C)C2)cc1 | 0.01 to 0.1 |  |  |  |  |
| CN1CCOc2cc(S(=O)(=O)N3CCC4=Cc5c(cnn5-c5ccc(F)cc5)CC4(Cc4ccc(F)cc4)C3)ccc21 (stereo not drawn) | < 0.01 | < 0.01 |  |  |  |
| O=S(=O)(c1ccccc1)N1CCC2=Cc3c(cnn3-c3ccc(F)cc3)C[C@]2(CN2CCCC2)C1 | < 0.01 | < 0.01 |  |  |  |
| CN(C)C[C@]12Cc3cnn(-c4ccc(F)cc4)c3C=C1CCN(S(=O)(=O)c1ccccc1)C2 | < 0.01 | 0.01 to 0.1 |  |  |  |
| CCN(CC)C[C@]12Cc3cnn(-c4ccc(F)cc4)c3C=C1CCN(S(=O)(=O)c1ccccc1)C2 | < 0.01 | 0.01 to 0.1 |  |  |  |
| Fc1ccc(-n2ncc3c2C=C2CCN(Cc4ccncc4)CC2(Cc2ccccc2)C3)cc1 (stereo not drawn) | 0.01 to 0.1 | > 0.1 |  |  |  |
| CCCCn1ncc2c1C=C1CCN(S(=O)(=O)c3ccc(C)cc3)C[C@@]1(C(=O)OC)C2 | > 0.1 | > 0.1 |  |  |  |
| CC(C)(C)c1ccc(S(=O)(=O)N2CCC3=Cc4c(cnn4-c4ccc(C(F)(F)F)cc4)CC3(Cc3ccccc3)C2)cc1 (stereo not drawn) [drawing 254] | 0.01 to 0.1 |  |  |  |  |
| O=S(=O)(c1ccccc1F)N1CCC2=Cc3c(cnn3-c3ccc(F)cc3)C[C@]2(CN2CCOCC2)C1 | < 0.01 | 0.01 to 0.1 |  |  |  |
| CCCCn1ncc2c1C=C1CCN(S(=O)(=O)c3ccc(C(C)(C)C)cc3)C[C@@]1(COCCOC)C2 | < 0.01 | 0.01 to 0.1 |  |  |  |
| O=S(=O)(c1ccccc1)N1CCC2=Cc3c(cnn3-c3ccc(F)cc3)CC2(Cc2ccc(F)cc2)C1 (stereo not drawn) | < 0.01 | 0.01 to 0.1 |  |  |  |
| CCCCn1ncc2c1C=C1CCN(S(=O)(=O)c3ccc(C)cc3)C[C@@]1(CN1CCCCC1)C2 | 0.01 to 0.1 |  |  |  |  |
| CC(C)(C)c1ccc(S(=O)(=O)N2CCC3=Cc4c(cnn4-c4ccc(C(F)(F)F)cc4)CC3(Cc3ccccc3)C2)cc1 (stereo not drawn) [drawing 238] | 0.01 to 0.1 |  |  |  |  |
| CC(C)(C)c1ccc(S(=O)(=O)N2CCC3=Cc4c(cnn4Cc4cccc(O)c4)CC3(Cc3ccccc3)C2)cc1 (stereo not drawn) [drawing 257] | > 0.1 |  |  |  |  |
| O=S(=O)(c1ccccc1)N1CCC2=Cc3c(cnn3-c3ccc(F)cc3)C[C@]2(CO)C1 | 0.01 to 0.1 |  |  |  |  |
| O=S(=O)(c1ccccn1)N1CCC2=Cc3c(cnn3-c3ccc(F)cc3)C[C@]2(CN2CCOCC2)C1 | < 0.01 |  |  |  |  |
